Experimental data reported in patent US20050113337A1, “Enhancement of oral bioavailability of non-emulsified formulations of prodrug esters with lecithin” (TAP Pharmaceutical Products, Inc., priority 2001, published 2005).

Key:
[1] = Solubility of cefditoren pivoxil in lecithin dispersions; format: physicochemical
Description: The solubility of cefditoren pivoxil in various lecithins was determined as follows. Three types of lecithin were tested: lecithin (LECI-PC 35P available from Traco Labs, IL), modified lecithin (containing 70% maltodextrin and 30% phosphatidyl choline; ALCOLEC SM 100 available from American Lecithin Inc. of CT) and hydroxylated lecithin (CENTROLENE A, available from Central Soya, IN). 5%, 10% and 15% suspensions of each type of lecithin were made up in distilled deionized water to form the test dispersions. Cefditoren pivoxil (available from Meiji Saika Kaisha Ltd of Japan) was added to each test dispersion. Each sample was vortexed for one minute, sonicated for two minutes, vortexed again for one minute and then centrifuged at 2000 rpm for ten minutes at room temperature. The resulting supernatant fraction was collected, filtered through a 0.45 μm filter and analyzed by HPLC.

[2] = test system: Carboxylesterase from porcine liver; test: Esterase degradation of cefditoren pivoxil; format: in vitro ADME; details: 20 minutes, 37° C.; for amount of cefditoren pivoxil remaining: esterase; for % cefditoren pivoxil remaining: simulated intestinal fluid
Description: First, a test was performed to determine whether cefditoren pivoxil is degraded by esterase. 25 mg of cefditoren pivoxil (available from Meiji Saika Kaisha Ltd of Japan) was dissolved in 100 ml of an aqueous solution containing 10% dimethylsulfoxide and 0.1 N. hydrochloric acid to make up an 0.25 mg/ml solution. Carboxylesterase (also referred to as esterase herein) from porcine liver (15 mg protein/ml, 250 units/mg protein, available from Sigma-Aldrich) was dissolved in simulated intestinal fluid (SIF having no added pancreatin, available from Sigma-Aldrich) to make up a solution having 0.5 units/ml.
2 ml of the cefditoren pivoxil solution was then mixed with 2 ml of the esterase solution and 2 ml of simulated intestinal fluid. This mixture was allowed to react for 20 minutes at 37° C. and then the reaction was quenched with 1.0 ml of acetonitrile. This procedure was repeated with esterase at two other concentrations.
The experimental procedure was as described above, except that the cefditoren pivoxil was dissolved in 3% lecithin (LECI-PC 35 P, available from Traco Labs of IL).
The amount of cefditoren pivoxil remaining in each of the samples was determined by HPLC, and compared to the amount of cefditoren pivoxil of a control solution. The control solution was 2.0 ml cefditoren pivoxil, 2.0 ml of 10% modified lecithin solution and 2.0 ml simulated intestinal fluid incubated and then quenched as above.

cefditoren pivoxil
solubility ([1]; in aqueous lecithin solution (LECI-PC 35P)): 678.5 µg/mL | solubility ([1]; in hydroxylated lecithin (CENTROLENE A)): 715.0 µg/mL | solubility ([1]; in modified lecithin (ALCOLEC SM 100)): 868.1 µg/mL | solubility ([1]; in water alone): 31.8 µg/mL | amount of cefditoren pivoxil remaining ([2]; cefditoren pivoxil dissolved in 3% lecithin (LECI-PC 35 P)): 57.4% | amount of cefditoren pivoxil remaining ([2]; control (non-lecithin containing) solution): 7% | % cefditoren pivoxil remaining ([2]; esterase concentration 0.05 units/ml): 81.9% | % cefditoren pivoxil remaining ([2]; esterase concentration 0.5 units/ml): 4.5% | % cefditoren pivoxil remaining ([2]; esterase concentration 5 units/ml): 0.3%
